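48-hour exposure; five concentrations; linearly interpolated endpoints. GI50 = concentration required for 50% inhibition of growth.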 The source made the active and inactive calls. Cut-off read from the data, not from the text of the source: active = GI50 up to about 1.1 µM and inactive = higher.
Experiments:
Assay in all cases: NCI-60 cell line screen, 48 h
HCT-116 = system: HCT-116
HOP-92 = system: HOP-92
HT-29 = system: HT-29
IGROV-1 = system: IGROV-1
KM12 = system: KM12
LXFL 529 = system: LXFL 529
NCI-H23 = system: NCI-H23
NCI-H522 = system: NCI-H522
OVCAR-3 = system: OVCAR-3
OVCAR-4 = system: OVCAR-4
RXF 393 = system: RXF 393
SF-268 = system: SF-268
SF-539 = system: SF-539
SK-MEL-28 = system: SK-MEL-28
SK-MEL-5 = system: SK-MEL-5
SNB-19 = system: SNB-19
SNB-78 = system: SNB-78
UACC-257 = system: UACC-257

Measured: GI50

CNCCCCN(C)/[N+]([O-])=N\O
inactive: HCT-116 > 100 µM | HOP-92 > 100 µM | HT-29 > 100 µM | IGROV-1 > 100 µM | KM12 > 100 µM | LXFL 529 > 100 µM | NCI-H23 > 100 µM | NCI-H522 > 100 µM | OVCAR-3 > 100 µM | OVCAR-4 > 100 µM | RXF 393 > 100 µM | SF-268 > 100 µM | SF-539 > 100 µM | SK-MEL-28 > 100 µM | SK-MEL-5 > 100 µM | SNB-19 > 100 µM | SNB-78 > 100 µM | UACC-257 > 100 µM

CCCCCCCCCCCC(=O)C1=C(O)CC(O)CC1=O (configuration not stated)
inactive: HCT-116 > 100 µM | HOP-92 > 100 µM | HT-29 > 100 µM | IGROV-1 > 100 µM | KM12 59.4 µM | LXFL 529 83.6 µM | NCI-H23 > 100 µM | NCI-H522 > 100 µM | OVCAR-3 82.6 µM | OVCAR-4 > 100 µM | RXF 393 > 100 µM | SF-268 > 100 µM | SF-539 > 100 µM | SK-MEL-28 > 100 µM | SK-MEL-5 > 100 µM | SNB-19 > 100 µM | SNB-78 > 100 µM | UACC-257 > 100 µM

Cc1ccc(S(=O)(=O)C(CC(=O)N2CCCC2)C(=O)c2ccccc2)cc1 (configuration not stated)
inactive: HCT-116 55.6 µM | HOP-92 > 100 µM | HT-29 > 100 µM | IGROV-1 > 100 µM | KM12 > 100 µM | LXFL 529 38.5 µM | NCI-H23 > 100 µM | NCI-H522 89.3 µM | OVCAR-3 > 100 µM | OVCAR-4 > 100 µM | RXF 393 > 100 µM | SF-268 83.4 µM | SF-539 > 100 µM | SK-MEL-28 > 100 µM | SK-MEL-5 > 100 µM | SNB-19 > 100 µM | SNB-78 54.6 µM | UACC-257 > 100 µM

N#COc1ccc(Oc2ccccc2)cc1
inactive: HCT-116 61.7 µM | HOP-92 43.8 µM | HT-29 72.4 µM | IGROV-1 68.4 µM | KM12 > 100 µM | LXFL 529 > 100 µM | NCI-H23 39.4 µM | NCI-H522 34.7 µM | OVCAR-3 > 100 µM | OVCAR-4 > 100 µM | RXF 393 > 100 µM | SF-268 75.2 µM | SF-539 26.8 µM | SK-MEL-28 > 100 µM | SK-MEL-5 46.6 µM | SNB-19 > 100 µM | SNB-78 36.8 µM | UACC-257 > 100 µM

— ChEMBL document CHEMBL1201862, “PubChem BioAssay data set” (2004)
